Source: patent US12115209B2, “ROMO1-derived antimicrobial peptides including lysine substitution and variants thereof” (KOREA UNIVERSITY RESEARCH AND BUSINESS FOUNDATION, priority 2019, dated 2024)
Non-standard residues stand in square brackets, D forms with d. Residues, ends and D or L forms follow the SMILES beside them. No end group written: not given here.

Experiments:
Assay type in all cases: cell-based
mouse red blood cells = tested on: mouse red blood cells
Description: Red blood cells were diluted with PBS, centrifuged 3 times at 900 g for 10 minutes, and washed. 100 μl of the diluted red blood cell solution (10% v/v PBS) was dispensed into each well of a 96-well microplate, and KU-5878, KU-5878-K4, KU-5878-K4-D, melittin, magainin 2 or daptomycin was added to each well which was then filled with PBS to 200 μl, followed by reaction by incubation at 37° C. for 1 hour. Then, the supernatant of the reaction solution was separated, and the absorbance at a wavelength of 550 nm was measured using a spectrophotometer. As control, PBS and 0.1% Triton X-100 (Triton X-100) solution were used.
Based on the results of measurement of the absorbance, the degree of red blood cell destruction was calculated according to Equation 1 below, and the results of the calculation are shown in FIG. 6. % The intact RBC=100(%)−[(absorbance of peptide-treated red blood cell solution−absorbance of PBS-treated red blood cell solution)/(absorbance of Triton X-100-treated red blood cell solution−absorbance of PBS-treated red blood cell solution)×100(%)] [Equation 1]

[1] = tested on: Staphylococcus aureus (ATCC 29213); assay: Minimum bactericidal concentration (MBC) assay
Method in brief: (§1)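 Peptide, 0–300 μg/ml, + bacteria at 1×10^5 CFU/ml in 10 mM sodium phosphate/1% TSB, 1 h, 37° C. Spot onto TS agar, 37° C 18 h. MBC: lowest conc. w/o colony growth. Strains pre-grown in 3% TSB.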

[2] = tested on: Pseudomonas aeruginosa (ATCC 27853); assay: Minimum bactericidal concentration (MBC) assay
Method in brief: as §1

[3] = tested on: Methicillin-resistant Staphylococcus aureus (MRSA, ATCC 33591); assay: Minimum bactericidal concentration (MBC) assay
Method in brief: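 Peptide at 0 to 300 μg/ml reacted 1 h at 37 °C with 1×10^5 CFU/ml bacteria in SP buffer (10 mM sodium phosphate, 1% TSB), bacteria pre-grown in 3% TSB. Aliquots then spread on TS agar and checked for colonies after 18 h at 37 °C.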

CRPA = assay: Minimum bactericidal concentration (MBC) assay
[4] = tested on: Pseudomonas aeruginosa, Staphylococcus aureus, CRPA, MRSA; assay: Increase in antibacterial activity (MBC) compared with KU-5878
[5] = tested on: Acinetobacter baumannii (ATCC 19606); conditions: ATCC 19606, 4 h
Description: (§2) Specifically, each type of bacteria was cultured in 3% (w/v) TSB (tryptic soy broth) liquid medium at 37° C. and 200 rpm for 4 hours, and then further cultured under the same conditions for 3 hours to a concentration of 5×10^6 CFU/ml. Strain solutions were prepared by diluting each of the further cultured strains with SP buffer to a final concentration of 2×10^5 CFU/ml.
(§3) Then, the KU-5878 peptide at varying concentrations (0 μg/ml to 300 μg/ml) was dispensed into each well of a 96-well microplate, and 100 μl (1×10^5 CFU/ml) of each of the prepared strain solutions was added thereto, mixed therewith, and allowed to react with the peptide in an incubator at 37° C. for 1 hour.
(§4) In addition, 10 μl of each reaction solution of the peptide and the strain was plated on the TS agar plate at a constant size, and incubated in an incubator at 37° C. for 18 hours, and then colony formation on the plate was checked. The minimum bactericidal concentration was defined as the minimum concentration of the peptide at which no colony was formed, and the experimental results are shown in Table 2 below.

[6] = tested on: Bacillus subtilis (ATCC 6633); conditions: ATCC 6633, 4 h
Description: as §2, §3, §4

[7] = tested on: Enterobacter aerogenes (ATCC 13048); conditions: ATCC 13048, 4 h
Description: as §2, §3, §4

[8] = tested on: Enterococcus faecalis (ATCC 19433); conditions: ATCC 19433, 4 h
Description: as §2, §3, §4

[9] = tested on: Enterococcus faecium (ATCC 19434); conditions: ATCC 19434, 4 h
Description: as §2, §3, §4

[10] = tested on: Escherichia coli (ATCC 25922); conditions: ATCC 25922, 4 h
Description: as §2, §3, §4

[11] = tested on: Klebsiella pneumoniae (ATCC 13883); conditions: ATCC 13883, 4 h
Description: as §2, §3, §4

[12] = tested on: Streptomyces sindenensis (ATCC 12392); conditions: ATCC 12392, 4 h
Description: as §2, §3, §4

[13] = mark = antibacterial activity increased compared with KU-5878

Molecule | MBC Staphylococcus aureus ([1]; Tables 11-21, no unit printed) [µg/mL] | MBC Pseudomonas aeruginosa ([2]; Tables 11-21, no unit printed) [µg/mL] | MBC MRSA ([3]; Tables 11-21, no unit printed) [µg/mL] | MBC CRPA (CRPA; Tables 11-21, no unit printed) [µg/mL] | Increase in activity [4, 13] | also measured
CC[C@H](C)[C@H](NC(=O)CNC(=O)[C@H](CCSC)NC(=O)CNC(=O)[C@@H](NC(=O)[C@H](C)NC(=O)[C@H](CCSC)NC(=O)[C@H](Cc1ccccc1)NC(=O)[C@@H](NC(=O)CNC(=O)[C@H](Cc1ccccc1)NC(=O)[C@@H](CCCCN)NC(=O)CNC(=O)CNC(=O)[C@@H](CCCCN)NC(=O)[C@@H](CCCCN)NC(=O)[C@H](CCSC)NC(=O)[C@H](CCSC)NC(=O)[C@@H](CCCCN)NC(=O)[C@@H](N)CCCCN)[C@@H](C)O)[C@@H](C)CC)C(=O)N[C@@H](CCCNC(=N)N)C(=O)O [KU-5878-K4-D] (H-K[dK]MM[dK][dK]GG[dK]FGTFMAIGMGIR-OH) | – | – | – | – | – | hemolysis of red blood cells (mouse red blood cells): little hemolysis
KKMMKKGGKFG-FMAIGMGIR [Peptide 5878-K4-d69T] | 2 | 4 | 2 | 3 | ◯ | –
KTMMQSGGTFGTFMAIG-GIR [Peptide 5878-d75M] | 100 | 100 | 110 | 100 | 0 | –
KKMMKKGGKFGTF-AIG-GIR [Peptide K4-d71M-d75M] | 3 | 4 | 5 | 4 | ◯ | –
KKMMQSGGTFGTFMAIGMGIR [KU-5878-T59K] | 40 | 50 | 50 | 50 | ◯ | –
KKMMKKGGKFGTFMAIG-GIR [Peptide 5878-K4-d75M] | 2 | 2 | 2 | 4 | ◯ | –
KKMMKKGGK-GTFMAIGMGIR [Peptide 5878-K4-d67F] | 6 | 4 | 4 | 5 | ◯ | –
KKMMKKGGKFGTFMAIGMGIR [KU-5878-K4] | – | – | – | – | – | MBC value [5]: 4 µg/mL; MBC value [6]: 5 µg/mL; MBC value [7]: 5 µg/mL; MBC value [8]: 5 µg/mL; MBC value [9]: 5 µg/mL; MBC value [10]: 5 µg/mL; MBC value [11]: 5 µg/mL; MBC value [12]: 5 µg/mL; hemolysis of red blood cells (mouse red blood cells): little hemolysis
KKMM-K-GKF-TFM-IG-GIR [d 62K 64G 68G 72A 75M] | 4 | 4 | 4 | 4 | ◯ | –
KKMMKK-GKFGTFMAIGMGIR [5878-K4-d64G(=d65G)] | 2 | 2 | 2 | 4 | ◯ | –
d 60M 61M 71M 75M (KKGGKFGTF) | – | – | – | – | – | MBC Staphylococcus aureus ([1]; Staphylococcus aureus): 1 µg/mL; MBC Pseudomonas aeruginosa ([2]; Pseudomonas aeruginosa): 2 µg/mL; MBC MRSA ([3]; MRSA): 2 µg/mL; MBC CRPA (CRPA; CRPA): 2 µg/mL; Increase in activity ([4]; compared with KU-5878): ◯
